The numbers were not newly measured in publication PMC12308805, “Ultrahigh-Throughput Virtual Screening Strategies against PPI Targets: A Case Study of STAT Inhibitors” (Journal of Chemical Information and Modeling, 2025), which cites them from elsewhere.

Molecules are shown by their SMILES. Square brackets hold non-standard residues; d marks the D form. Peptide text beside a SMILES is read from it.

This data set relates to STAT3. As to conditions: sheet 6QHD_actives_decoys, retrospective screening set for STAT3 SH2 domain (PDB 6QHD); decoys are presumed inactives, not tested; ref DUD-E; cited from earlier work.
`COC(=O)c1sc2cc(SCC(=O)Nc3cc(OC)c(OC)c(OC)c3)ccc2c1/N=C(\O)C(F)(F)F` [Decoy807]: the Type result was “Inactive (Decoy)”.
As to `COCCNC(=O)[C@@H](c1ccc(F)cc1)N(C(=O)c1snc(C(N)=O)c1N)c1ccc2c(c1)OCO2` [Decoy808], the Type result is on record as “Inactive (Decoy)”.
Take `CC(=O)Nc1ccc(S(=O)(=O)NCCCCNc2ccc([N+](=O)[O-])c3cccnc23)cc1` [Decoy809]: the Type entry was “Inactive (Decoy)”.
Regarding `COC(=O)Cc1c(C(=O)OC)sc(NC(=O)CSc2nc(C(C)(C)C)n[nH]2)c1C(=O)OC` [Decoy810], the Type entry is listed as “Inactive (Decoy)”.
With `Cc1nnc(/N=C(\O)CSc2nnc(NN=C(Cc3ccccc3)Cc3ccccc3)n2N)s1` [Decoy811], the Type entry is “Inactive (Decoy)”.
With `CC(O)(O)C(=O)OCC(C)(COC(=O)C(C)(O)O)C(=O)OCC(C)(COC(=O)C(C)(COC(=O)C(C)(O)O)COC(=O)C(C)(O)O)C(=O)OCCS` [Decoy812], the Type entry is “Inactive (Decoy)”.
In the case of `CCCCNC(=O)[C@@H](c1cc([N+](=O)[O-])ccc1Cl)N(Cc1ccc(C)o1)C(=O)c1ccccc1O` [Decoy813], the Type result is listed as “Inactive (Decoy)”.
Regarding `CSCC[C@@H](NC(=O)[C@H](N)Cc1ccc(O)cc1)C(=O)N[C@H](Cc1ccccc1)C(=O)N[C@H](Cc1c[nH]cn1)C(=O)N[C@@H](CC(C)C)C(=O)N[C@H](CCSC)C(=O)N[C@@H](CC(=O)O)C(N)=O` [Decoy814] (H-[dY][dM][dF][dH]L[dM]D-NH2), the Type entry is recorded as “Inactive (Decoy)”.
Turning to `COc1cc(/C=C/C(=O)OC[C@H]2O[C@H](O[C@]3(CO)O[C@H](CO)[C@@H](O)[C@@H]3O)[C@H](O)[C@@H](O)[C@@H]2O)cc(OC)c1O` [Decoy815], the Type entry is “Inactive (Decoy)”.
Turning to `COc1cc(C[C@@]2(O)CO[C@H](c3ccc(O[C@@H]4O[C@H](CO)[C@@H](O)[C@H](O)[C@H]4O)c(OC)c3)[C@H]2CO)ccc1O` [Decoy816], the Type result is “Inactive (Decoy)”.
For the compound `COc1cc([C@@H]2OC[C@H]3[C@@H]2CO[C@@H]3c2cc(OC)c(O[C@@H]3O[C@H](CO)[C@@H](O)[C@H](O)[C@H]3O[C@@H]3OC[C@](O)(CO)[C@H]3O)c(OC)c2)cc(OC)c1O` [Decoy817], the Type result is listed as “Inactive (Decoy)”.
Regarding `CCOC(=O)C1=C(C)NC(=O)N[C@H]1c1ccc(OCC(=O)N/N=C/c2ccc(SC)cc2)c(OC)c1` [Decoy818], the Type entry is listed as “Inactive (Decoy)”.
`O=S1(=O)CC[C@@H](NCOC(COCN[C@H]2CCS(=O)(=O)C2)COCN[C@H]2CCS(=O)(=O)C2)C1` [Decoy819]: the Type result is recorded as “Inactive (Decoy)”.
For the compound `CCOC(=O)CCC(=O)O[C@H]1[C@@H](O[C@@H]2[C@H](C)[C@H](O[C@@H]3C[C@@](C)(OC)[C@H](O)[C@H](C)O3)[C@H](C)C(=O)O[C@@H](CC)[C@@](C)(O)[C@H](O)[C@H](C)C(=O)[C@H](C)C[C@@]2(C)O)O[C@@H](C)C[C@H]1N(C)C` [Decoy820], the Type result is given as “Inactive (Decoy)”.
As to `CN(Cc1cnc2nc(N)nc(N)c2n1)c1ccc(C(=O)N[C@H](CCC(=O)NCCNC(=O)CCCC[C@@H]2SC[C@@H]3NC(=O)N[C@@H]32)C(=O)O)cc1` [Decoy821], the Type entry is “Inactive (Decoy)”.
For the compound `CC(C)COC(=O)c1ccc(Nc2ncnc(NNC(=O)Cc3ccc([N+](=O)[O-])cc3)c2[N+](=O)[O-])cc1` [Decoy822], the Type entry is “Inactive (Decoy)”.
Consider `COc1cc([C@H]2c3cc(OC)c(O[C@H]4O[C@@H](CO)[C@@H](O)[C@@H](O)[C@H]4O)c(OC)c3C[C@@H](CO)[C@@H]2CO)cc(OC)c1O` [Decoy823], for which the Type entry is “Inactive (Decoy)”.
For the compound `COc1cc([C@H]2c3cc(OC)c(O[C@H]4O[C@@H](CO)[C@@H](O)[C@@H](O)[C@H]4O)c(OC)c3C[C@H](CO)[C@@H]2CO)cc(OC)c1O` [Decoy824], the Type entry is “Inactive (Decoy)”.
Consider `O=C(CS[C@@H]1NN[C@H](NCc2ccco2)S1)N[C@H](Cc1c[nH]c2ccccc12)C(=O)O` [Decoy825], for which the Type entry was “Inactive (Decoy)”.
In the case of `Cn1c(CCCC(=O)O)nc2cc(N(CCO)CCOC(=O)CCCc3nc4cc(N(CCO)CCO)ccc4n3C)ccc21` [Decoy826], the Type entry is listed as “Inactive (Decoy)”.
Consider `COc1ccc(N/C(=N/C(=O)c2ccc(OC)c(OC)c2)NCCc2c(C)nn(C)c2C)cc1OC` [Decoy827], for which the Type entry is given as “Inactive (Decoy)”.
For the compound `O[C@H](CNCCOc1ccccc1OCCNC[C@H](O)COc1cccc2[nH]c3ccccc3c12)COc1cccc2[nH]c3ccccc3c12` [Decoy828], the Type result is listed as “Inactive (Decoy)”.
Turning to `CCN(CC)c1ccc2c(-c3ccc(S(=O)(=O)NCCSS(C)(=O)=O)cc3S(=O)(=O)[O-])c3ccc(=[N+](CC)CC)cc-3oc2c1` [Decoy829], the Type entry is recorded as “Inactive (Decoy)”.
`C[C@H](CCC(=O)NCCS(=O)(=O)O)[C@H]1CC[C@H]2[C@H]3[C@H](O)C[C@@H]4C[C@H](OS(=O)(=O)O)CC[C@]4(C)[C@H]3C[C@H](O)[C@]12C` [Decoy830]: the Type result is given as “Inactive (Decoy)”.
Consider `CCOc1ccccc1NC(=O)CSC1=C(C#N)[C@H](c2ccco2)C(/C(O)=N/c2ccc(S(N)(=O)=O)cc2)=C(C)N1` [Decoy831], for which the Type entry is on record as “Inactive (Decoy)”.
On to `CCOc1ccc(-c2nn(-c3ccccc3)cc2C2C(C(=O)OCCOC)=C(C)NC(C)=C2C(=O)OCCOC)cc1C` [Decoy832], for which the Type result is reported as “Inactive (Decoy)”.
Consider `COCCOC(=O)C1=C(C)NC(SCC(=O)Nc2ccc([N+](=O)[O-])cc2)=C(C#N)[C@@H]1c1ccco1` [Decoy833], for which the Type entry was “Inactive (Decoy)”.
As to `CCc1c(C)nc(-n2nc(-c3ccco3)cc2NC(=O)c2cc(OC)c(OC)cc2[N+](=O)[O-])nc1O` [Decoy834], the Type entry is reported as “Inactive (Decoy)”.
Regarding `COc1ccc(OC)c(S(=O)(=O)Nc2ccc(S(=O)(=O)Nc3nccc(C)n3)cc2)c1` [Decoy835], the Type result was “Inactive (Decoy)”.
Regarding `CC(C)(O)[C@@H](O)CC[C@@H](CO)[C@H]1CC[C@]2(C)C3=C(C[C@H](O)[C@@]12C)[C@@]1(C)C[C@H](O)[C@H](OC(=O)C[C@](C)(O)CC(=O)NCC(=O)O)C(C)(C)[C@H]1CC3` [Decoy836], the Type result was “Inactive (Decoy)”.
Take `COc1cc(S(=O)(=O)N2CCCCC2)ccc1N/C=C1\C(=O)NC(=O)N(c2ccc(C)cc2)C1=O` [Decoy837]: the Type entry is reported as “Inactive (Decoy)”.
On to `CCOC(=O)c1c(NC(=O)/C(O)=N/N=C/c2cn(-c3ccccc3)nc2-c2ccc(OC)cc2)sc2c1CCCC2` [Decoy838], for which the Type result is “Inactive (Decoy)”.
With `CC1(C)[C@]2(C(=O)NCCN(CCNC(=O)[C@]34CC[C@](C)(C(=O)C3)C4(C)C)CCNC(=O)[C@]34CC[C@](C)(C(=O)C3)C4(C)C)CC[C@@]1(C)C(=O)C2` [Decoy839], the Type result was “Inactive (Decoy)”.
In the case of `O=C(O)c1ccccc1Nc1ccc(C(F)(F)F)cc1Nc1ccc(CNCc2c[nH]c(=O)[nH]c2=O)cc1C(=O)O` [Decoy840], the Type result is on record as “Inactive (Decoy)”.
Consider `N[C@@H](CCCC[n+]1cc(CC[C@H](N)C(=O)O)cc(CC[C@H](N)C(=O)O)c1CCC[C@H](N)C(=O)O)C(=O)[O-]` [Decoy841], for which the Type entry is recorded as “Inactive (Decoy)”.
Take `COc1cc(C(=O)O)ccc1O[C@@H]1O[C@H](COC(=O)c2ccc(O)c(O)c2)[C@@H](O)[C@H](O)[C@H]1O` [Decoy842]: the Type result is recorded as “Inactive (Decoy)”.
As for `CCOC(=O)c1sc(NC(=O)CSc2nnc(CNC(=O)c3ccccc3OC)n2C)c(C(=O)OCC)c1C` [Decoy843], the Type result is reported as “Inactive (Decoy)”.
In the case of `CCN(CC)Cc1c(C(=O)N/N=C/c2cc(Cl)ccc2OCc2c(F)cccc2Cl)nnn1-c1nonc1N` [Decoy844], the Type result is on record as “Inactive (Decoy)”.
As to `CCOC(=O)c1ccc(NC(=O)C(=O)NCc2ccc(/C=C3/C(=O)N(c4ccc(C)c(Cl)c4)C(C)=C3C(=O)OC)o2)cc1` [Decoy845], the Type entry is listed as “Inactive (Decoy)”.
Consider `CCOC(=O)c1ccc(NC(=O)C(=O)NCc2ccc(/C=C3\C(=O)N(c4ccc(Cl)c(Cl)c4)C(C)=C3C(=O)OC)o2)cc1` [Decoy846], for which the Type entry is “Inactive (Decoy)”.
Consider `CC(C)(CO[P@](=O)(O)O[P@](=O)(O)OC[C@H]1O[C@@H](n2cnc3c(N)ncnc32)[C@H](O)[C@@H]1OP(=O)(O)O)[C@@H](O)C(=O)NCCC(=O)NCCS` [Decoy847], for which the Type entry is “Inactive (Decoy)”.
Regarding `CCOc1cc([C@@H]2C(C(=O)c3ccc4c(c3)OCCO4)=C(O)C(=O)N2CCCN2CCOCC2)ccc1O` [Decoy848], the Type result is given as “Inactive (Decoy)”.
Regarding `CC(C)(C)NS(=O)(=O)c1ccc(NC(=O)CSc2nnc(N/N=C/c3cccc(O)c3)n2N)cc1` [Decoy849], the Type entry is listed as “Inactive (Decoy)”.
Regarding `CCCN[C@H](c1cc(F)ccc1Cl)c1cc(C)ccc1Br` [Decoy850], the Type result was “Inactive (Decoy)”.
Consider `COc1cc(-c2ccc(/N=N/c3ccc4c(S(=O)(=O)O)cc(S(=O)(=O)O)c(N)c4c3O)c(OC)c2)ccc1/N=N\c1c(O)ccc2ccccc12` [Decoy851], for which the Type result is reported as “Inactive (Decoy)”.
On to `C[C@H](OC(=O)c1sccc1NS(C)(=O)=O)C(=O)NCC(=O)Nc1ccc(F)c(F)c1F` [Decoy852], for which the Type entry is given as “Inactive (Decoy)”.
As for `CCSc1nnc(NC(=O)CSc2nnc(CNC(=O)c3cccs3)n2-c2ccccc2OC)s1` [Decoy853], the Type result is “Inactive (Decoy)”.
`CC(=O)SCCNC(=O)CCNC(=O)[C@@H](O)C(C)(C)CO[P@](=O)(O)O[P@](=O)(O)OC[C@H]1O[C@@H](n2cnc3c(N)ncnc32)[C@@H](O)[C@H]1OP(=O)(O)O` [Decoy854]: the Type entry is on record as “Inactive (Decoy)”.
As to `CCc1ccc(NC(=O)CSC2=C(C#N)[C@H](c3ccco3)C(C(=O)Nc3ccc(S(N)(=O)=O)cc3)=C(C)N2)cc1` [Decoy855], the Type entry is reported as “Inactive (Decoy)”.
Turning to `COc1cc(C(=O)NNC(=S)NC(=O)COc2ccc(Br)cc2C)cc(OC)c1OC` [Decoy856], the Type result was “Inactive (Decoy)”.
As for `CCNc1nc(NCC)n2c(SCC(=O)NC3=C(C(=O)OCC)[C@H]4CCC[C@@H]4S3)nnc2n1` [Decoy857], the Type result was “Inactive (Decoy)”.
`CCOc1ccc(S(=O)(=O)Nc2ccc(C(=O)N/N=C(\C)c3ccc(OC)cc3O)cc2)cc1` [Decoy858]: the Type result is reported as “Inactive (Decoy)”.
